Values after ≈ are worked out from the molar mass of the structure shown. Read-outs that look alike come from different tables or passages of the source.

Broadly, the Ki is a measure of affinity in units of concentration, obtained from inhibition or displacement. By solubility is commonly meant the concentration that dissolves in the medium under given conditions.

In data set [1] the target is T1, PI3Kγ (Homo sapiens, UniProt P48736). Briefly: PI3Kγ inhibitory activity (Ki value). It counts as biochemical. The procedure, abridged: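 Ki derived from IC50 measured at final compound levels of 50–0.05 μmol/L (HTRF read-out; 40 μmol/L ATP, 10 mmol/L MgCl2, 5 mmol/L DTT), IC50 by logistic or two-point linear fit. ATP Km from Lineweaver-Burk over 0.625–80 μmol/L ATP; Ki = IC50/(1+[ATP]/Km).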
T1 sequence (P48736 whole entry, species assumed): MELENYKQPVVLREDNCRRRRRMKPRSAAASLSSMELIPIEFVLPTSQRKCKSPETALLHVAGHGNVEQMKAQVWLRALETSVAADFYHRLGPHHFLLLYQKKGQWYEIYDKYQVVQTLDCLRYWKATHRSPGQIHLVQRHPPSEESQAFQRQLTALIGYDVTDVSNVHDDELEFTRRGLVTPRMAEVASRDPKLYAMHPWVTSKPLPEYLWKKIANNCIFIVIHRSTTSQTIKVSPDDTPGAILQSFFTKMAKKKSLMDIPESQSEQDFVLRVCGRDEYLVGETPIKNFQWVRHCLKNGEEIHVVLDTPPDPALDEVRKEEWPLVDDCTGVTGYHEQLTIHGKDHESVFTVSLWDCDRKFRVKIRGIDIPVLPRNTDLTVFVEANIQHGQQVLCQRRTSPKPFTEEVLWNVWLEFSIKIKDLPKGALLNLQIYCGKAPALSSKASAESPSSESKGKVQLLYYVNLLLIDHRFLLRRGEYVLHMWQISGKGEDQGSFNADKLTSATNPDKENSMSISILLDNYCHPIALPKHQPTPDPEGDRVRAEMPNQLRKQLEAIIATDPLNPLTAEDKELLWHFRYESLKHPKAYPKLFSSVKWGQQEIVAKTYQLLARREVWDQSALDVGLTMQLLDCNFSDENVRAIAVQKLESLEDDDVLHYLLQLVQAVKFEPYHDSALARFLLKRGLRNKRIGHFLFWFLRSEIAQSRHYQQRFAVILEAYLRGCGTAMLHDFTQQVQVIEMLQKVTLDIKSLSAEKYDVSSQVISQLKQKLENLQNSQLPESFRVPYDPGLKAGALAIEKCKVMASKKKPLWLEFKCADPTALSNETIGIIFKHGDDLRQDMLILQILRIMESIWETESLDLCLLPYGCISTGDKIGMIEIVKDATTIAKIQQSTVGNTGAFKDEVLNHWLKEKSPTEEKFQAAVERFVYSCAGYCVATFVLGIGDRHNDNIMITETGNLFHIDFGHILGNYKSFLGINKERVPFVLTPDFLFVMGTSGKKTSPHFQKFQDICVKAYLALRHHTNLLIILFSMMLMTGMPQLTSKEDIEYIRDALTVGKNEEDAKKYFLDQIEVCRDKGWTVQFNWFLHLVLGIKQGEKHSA

In the next data set the target is PI3Kα (Homo sapiens, UniProt P42336). Briefly: PI3Kα inhibitory activity (Ki value). In kind it is biochemical. The following applies: class symbols; read-out: PI3K α Ki. How it is done: According to Example 2 above, after 80 μg/mL PI-3 kinase γ of the enzyme solution (80 μg/mL PI-3 kinase γ, 10 mmol/L MgCl2, 5 mmol/L DTT) was changed to 0.8 μg/mL PI-3 kinase α, an inhibition ratio was calculated by a method similar to the method for measuring PI3Kγ inhibitory activity, and then defined as the PI3Kα inhibitory activity.
Chain of PI3Kα (P42336 whole entry, species assumed): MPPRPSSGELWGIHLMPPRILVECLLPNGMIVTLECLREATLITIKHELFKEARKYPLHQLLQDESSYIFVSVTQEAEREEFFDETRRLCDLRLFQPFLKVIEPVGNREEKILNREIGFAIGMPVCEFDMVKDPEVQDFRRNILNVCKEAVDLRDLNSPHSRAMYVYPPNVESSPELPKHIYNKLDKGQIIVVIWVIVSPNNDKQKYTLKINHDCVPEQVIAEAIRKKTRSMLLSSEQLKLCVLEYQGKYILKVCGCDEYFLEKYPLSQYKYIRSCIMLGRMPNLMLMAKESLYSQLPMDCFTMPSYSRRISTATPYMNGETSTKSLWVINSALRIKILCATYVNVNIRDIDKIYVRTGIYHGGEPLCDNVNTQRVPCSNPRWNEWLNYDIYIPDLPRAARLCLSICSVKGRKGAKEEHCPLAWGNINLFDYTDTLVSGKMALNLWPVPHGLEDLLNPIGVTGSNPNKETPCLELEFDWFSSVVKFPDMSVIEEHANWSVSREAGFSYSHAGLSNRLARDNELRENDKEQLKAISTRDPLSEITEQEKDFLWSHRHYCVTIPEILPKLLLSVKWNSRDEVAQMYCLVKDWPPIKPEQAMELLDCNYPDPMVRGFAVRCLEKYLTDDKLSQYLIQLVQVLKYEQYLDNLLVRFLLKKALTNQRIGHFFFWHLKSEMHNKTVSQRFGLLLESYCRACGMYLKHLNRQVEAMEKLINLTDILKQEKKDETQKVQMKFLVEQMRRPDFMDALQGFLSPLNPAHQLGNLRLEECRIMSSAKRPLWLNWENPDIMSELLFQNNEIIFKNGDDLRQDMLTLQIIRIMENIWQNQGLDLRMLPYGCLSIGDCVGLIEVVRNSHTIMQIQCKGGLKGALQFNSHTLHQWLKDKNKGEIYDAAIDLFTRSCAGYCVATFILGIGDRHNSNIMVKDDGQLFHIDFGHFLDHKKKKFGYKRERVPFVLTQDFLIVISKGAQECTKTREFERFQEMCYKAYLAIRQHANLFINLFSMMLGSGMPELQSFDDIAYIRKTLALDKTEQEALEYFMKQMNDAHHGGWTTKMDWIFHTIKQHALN
Chain of PI3Kα (P27986 whole entry partner, species assumed): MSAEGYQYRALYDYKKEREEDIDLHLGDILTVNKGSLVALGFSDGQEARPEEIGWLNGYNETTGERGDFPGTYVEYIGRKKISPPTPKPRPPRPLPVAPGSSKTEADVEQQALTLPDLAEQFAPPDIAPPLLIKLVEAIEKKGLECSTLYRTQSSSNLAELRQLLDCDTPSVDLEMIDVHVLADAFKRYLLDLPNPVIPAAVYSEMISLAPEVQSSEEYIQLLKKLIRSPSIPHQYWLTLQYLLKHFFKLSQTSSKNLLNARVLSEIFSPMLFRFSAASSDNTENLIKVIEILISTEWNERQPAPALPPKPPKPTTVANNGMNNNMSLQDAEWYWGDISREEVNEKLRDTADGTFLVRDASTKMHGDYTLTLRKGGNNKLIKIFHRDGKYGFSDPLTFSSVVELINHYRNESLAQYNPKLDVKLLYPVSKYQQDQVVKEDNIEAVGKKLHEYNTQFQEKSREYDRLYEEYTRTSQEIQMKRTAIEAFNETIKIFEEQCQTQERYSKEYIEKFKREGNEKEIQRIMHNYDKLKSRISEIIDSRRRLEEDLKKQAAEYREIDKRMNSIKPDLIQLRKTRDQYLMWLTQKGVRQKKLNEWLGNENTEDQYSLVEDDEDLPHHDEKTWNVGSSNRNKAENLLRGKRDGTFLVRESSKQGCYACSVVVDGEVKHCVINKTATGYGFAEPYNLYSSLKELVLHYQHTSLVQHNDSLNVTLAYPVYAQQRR
The α inhibitory activity (Ki value) of a compound was evaluated according to the following procedure.
According to Example 4 above, a Km value for PI3Kα was determined to calculate a Ki value.

For the next data set, the target named is PI3Kβ (Homo sapiens, UniProt P42338). Description: PI3Kβ inhibitory activity (Ki value). It counts as biochemical. The following applies: class symbols; read-out: PI3K β Ki. The protocol:
According to Example 2 above, after 80 μg/mL PI-3 kinase γ of the enzyme solution (80 μg/mL PI-3 kinase γ, 10 mmol/L MgCl2, 5 mmol/L DTT) was changed to 60 μg/mL PI-3 kinase β, a method similar to the method for measuring PI3Kγ inhibitory activity was used to calculate an inhibition ratio, which was defined as the PI3Kβ inhibitory activity.
According to Example 4 above, a Km value for PI3Kβ was determined to calculate a Ki value.

Another data set has as its target PI3Kδ (Homo sapiens, UniProt O00329). Description: PI3Kδ inhibitory activity (Ki value). In kind it is biochemical. Conditions: class symbols; read-out: PI3K δ Ki. How it is done: According to Example 2 above, after 80 μg/mL PI-3 kinase γ of the enzyme solution (80 μg/mL PI-3 kinase γ, 10 mmol/L MgCl2, 5 mmol/L DTT) was changed to 158 μg/mL PI-3 kinase δ, a method similar to the method for measuring PI3Kγ inhibitory activity was used to calculate an inhibition ratio, which was defined as the PI3Kδ inhibitory activity.
According to Example 4 above, a Km value for PI3Kδ was determined to calculate a Ki value.

Data set [2] in a line: Metabolic stability test (pooled human liver microsome). In kind it is in vitro ADME. The following applies: percentage of test compound remained after 30 minutes, pooled human liver microsome 0.5 mg protein/mL, 1 mmol/L NADPH, 37° C., compound 0.5 μM. The procedure, abridged: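 Pooled human liver microsomes (0.5 mg protein/mL) incubated with compound and 1 mmol/L NADPH at 37° C. in pH 7.4 Tris buffer for 0 or 30 min. Parent quantified by LC/MS/MS after methanol/acetonitrile quench; value is % remaining at 30 min versus 0 min.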
Background: Microsomes from liver hold many membrane-bound enzymes, among them those of drug oxidation.

In a further data set the target is T2, hERG channel (IKr) (Homo sapiens, UniProt Q12809).
T2 construct: expressed in transfected cells; host or cells: HEK293
Description: hERG test (whole-cell patch-clamp, IKr in HEK293 cells). The following applies: human, HEK293 cells expressing hERG channel, pH 7.4, inhibition of maximum tail current (IKr), compound 1 μM. In kind it is cell-based. A digest of the protocol: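 hERG-expressing HEK293 cells, automated whole-cell patch clamp: hold −80 mV, +50 mV for 2 s, then −50 mV for 2 s to record IKr tail current. Compound in extracellular solution (pH 7.4) for 10 min at room temperature; inhibition of maximum tail current calculated versus pre-application and compared with 0.1% DMSO vehicle.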

In data set [3] the target is T1, PI3Kγ. Description: PI3Kγ inhibitory activity (PI3-kinase HTRF assay, inhibition ratio). It counts as biochemical. Conditions: 0.5 h, compound at 10 μmol/L; read-out: PI3Kg Inhibition Ratio % (10 μM). A digest of the protocol: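 Compound at 10 μmol/L preincubated 10 min with PI3Kγ and PIP2 substrate, then reacted with ATP for 30 minutes at room temperature; the compound, substrate and ATP figures as printed (40 μmol/L each) are solution concentrations. HTRF 665/620 nm ratio read after 18 hours. Inhibition ratio calculated against no-compound (100%) and no-enzyme (0%) controls.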
(In general: TR-FRET usually uses a lanthanide donor and a delayed reading to cut background.)

Another data set deals with AKT phosphorylation. Briefly: AKT phosphorylation inhibitory activity in MCP-1 stimulated THP-1 cells (sandwich ELISA). It counts as cell-based, Human. The following applies: Homo sapiens, compound at 1 μmol/L, MCP-1 stimulation, read-out: AKT phosphorylation inhibition ratio. A digest of the protocol: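 THP-1 cells (6.7×10^6/mL in HBSS) were preincubated with compound at 1 μmol/L for 5 min at 37 °C, then stimulated for 60 s with HBSS containing 1.2 μg/mL MCP-1 and lysed. Phospho-Akt Ser473/AKT1 sandwich ELISA was read at A450. % inhibition: no compound = 100% activity, no MCP-1 = 0%.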
For orientation: An ELISA detects its analyte on a solid surface through an enzyme-linked reagent.

Data set [4] can be described thus: Solubility test (artificial intestinal juice pH 6.8, 1% DMSO). In kind it is physicochemical. The following applies: artificial intestinal juice pH 6.8 with 1% DMSO, fassgf or other biorelevant, kinetic from dmso stock, 25° C. The protocol: The solubility of a compound was determined under a condition in which 1% DMSO was added. 10 mmol/L compound solution was prepared using DMSO, and then 6 μL of the compound solution was added to 594 μL of artificial intestinal juice in pH 6.8 (to 250 mL of 0.2 mol/L potassium dihydrogen phosphate reagent solution was added 118 mL of 0.2 mol/L NaOH reagent solution and water to provide a final volume of 1000 mL). After standing at 25° C. for 16 hours, the mixed solution was filtered with suction. The filtrate was diluted twice with methanol/water (1/1), and then a concentration in the filtration was measured with HPLC or LC/MS/MS by the absolute calibration method.

In another data set the target is T3, CYP3A4 (Homo sapiens, UniProt P08684).
T3 construct: host or cells: E. coli
Description: CYP3A4 fluorescence MBI test. In kind it is in vitro ADME. Conditions: difference in IC50 with 0 or 30 minutes pre-reaction; CYP3A4 expressed in E. coli, substrate 7-BFC. A digest of the protocol: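 E. coli-expressed CYP3A4 debenzylating 5.6 μmol/L 7-BFC to fluorescent 7-HFC (Ex 420/Em 535 nm) in K-Pi pH 7.4 at 25° C, 15 min reaction. NADPH pre-incubation of 0 or 30 min, with 10-fold dilution before reaction. IC50 from 0.625–20 μmol/L (6 points); (+) for an IC50 shift ≥5 μmol/L, (−) for ≤3 μmol/L.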

[5] abbreviates: class symbols, read-out: PI3K γ Ki.

Chain of PI3Kδ (O00329 whole entry, species assumed): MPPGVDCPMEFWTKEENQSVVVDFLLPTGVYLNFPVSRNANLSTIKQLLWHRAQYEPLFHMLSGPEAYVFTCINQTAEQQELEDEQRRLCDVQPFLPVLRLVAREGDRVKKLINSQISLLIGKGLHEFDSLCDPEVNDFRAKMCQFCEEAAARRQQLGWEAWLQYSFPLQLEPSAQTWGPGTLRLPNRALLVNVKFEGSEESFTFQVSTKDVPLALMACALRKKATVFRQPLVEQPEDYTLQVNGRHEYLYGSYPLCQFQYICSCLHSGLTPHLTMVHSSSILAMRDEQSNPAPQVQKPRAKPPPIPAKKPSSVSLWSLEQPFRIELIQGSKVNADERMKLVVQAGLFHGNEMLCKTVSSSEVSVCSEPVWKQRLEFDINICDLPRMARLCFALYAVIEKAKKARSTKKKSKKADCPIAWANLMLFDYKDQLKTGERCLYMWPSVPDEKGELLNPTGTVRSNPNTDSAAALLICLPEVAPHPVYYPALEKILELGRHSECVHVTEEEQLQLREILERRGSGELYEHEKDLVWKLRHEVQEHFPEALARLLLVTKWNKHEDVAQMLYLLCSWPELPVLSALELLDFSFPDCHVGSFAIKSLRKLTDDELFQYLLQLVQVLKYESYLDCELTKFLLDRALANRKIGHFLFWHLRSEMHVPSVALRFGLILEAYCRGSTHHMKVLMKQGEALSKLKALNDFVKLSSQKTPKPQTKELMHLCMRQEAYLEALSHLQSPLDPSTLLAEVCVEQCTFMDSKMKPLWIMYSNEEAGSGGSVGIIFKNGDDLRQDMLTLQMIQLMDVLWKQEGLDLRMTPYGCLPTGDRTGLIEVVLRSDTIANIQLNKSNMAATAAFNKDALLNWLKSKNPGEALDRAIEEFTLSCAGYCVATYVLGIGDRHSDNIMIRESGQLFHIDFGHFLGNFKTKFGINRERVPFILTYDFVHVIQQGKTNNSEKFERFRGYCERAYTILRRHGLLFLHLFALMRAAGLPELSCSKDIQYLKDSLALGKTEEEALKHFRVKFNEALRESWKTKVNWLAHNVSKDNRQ
Chain of PI3Kδ (P27986 whole entry partner, species assumed): as the sequence (P27986 whole entry partner, species assumed) above
Chain of PI3Kβ (P42338 whole entry, species assumed): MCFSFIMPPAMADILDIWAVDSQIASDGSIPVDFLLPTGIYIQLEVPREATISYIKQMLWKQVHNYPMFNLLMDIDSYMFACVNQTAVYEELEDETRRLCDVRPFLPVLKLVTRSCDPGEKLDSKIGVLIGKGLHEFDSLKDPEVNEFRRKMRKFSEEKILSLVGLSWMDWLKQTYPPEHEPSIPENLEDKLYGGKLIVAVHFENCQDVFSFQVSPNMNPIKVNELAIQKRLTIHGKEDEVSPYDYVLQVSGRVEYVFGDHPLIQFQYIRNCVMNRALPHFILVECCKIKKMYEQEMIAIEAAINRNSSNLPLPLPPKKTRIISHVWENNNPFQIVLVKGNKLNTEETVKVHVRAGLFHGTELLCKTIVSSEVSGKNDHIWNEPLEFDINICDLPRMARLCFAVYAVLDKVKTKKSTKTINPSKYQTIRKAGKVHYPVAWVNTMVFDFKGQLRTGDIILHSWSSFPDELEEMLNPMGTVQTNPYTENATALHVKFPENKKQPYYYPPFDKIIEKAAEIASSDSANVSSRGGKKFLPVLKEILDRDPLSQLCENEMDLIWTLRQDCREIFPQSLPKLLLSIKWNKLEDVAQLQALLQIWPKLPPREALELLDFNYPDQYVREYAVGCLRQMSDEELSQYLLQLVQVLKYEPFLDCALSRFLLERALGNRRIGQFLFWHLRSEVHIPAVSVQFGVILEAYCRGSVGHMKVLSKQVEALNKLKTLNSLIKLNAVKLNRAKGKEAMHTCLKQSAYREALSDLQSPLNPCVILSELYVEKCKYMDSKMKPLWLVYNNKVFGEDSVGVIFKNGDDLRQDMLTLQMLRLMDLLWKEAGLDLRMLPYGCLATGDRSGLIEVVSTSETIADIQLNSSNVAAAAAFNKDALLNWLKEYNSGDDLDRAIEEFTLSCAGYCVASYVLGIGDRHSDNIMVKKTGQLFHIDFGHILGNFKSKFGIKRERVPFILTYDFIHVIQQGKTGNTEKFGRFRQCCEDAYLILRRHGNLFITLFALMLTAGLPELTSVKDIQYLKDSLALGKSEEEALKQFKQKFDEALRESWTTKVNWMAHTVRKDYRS
Chain of PI3Kβ (P27986 whole entry partner, species assumed): as the sequence (P27986 whole entry partner, species assumed) above

`CC(C)NC(=O)c1ccccc1NC(=O)Nc1cn2nc(-c3cccc(S(C)(=O)=O)c3)ccc2n1` [Compound I-125]: the inhibitory constant (Ki) at PI3Kγ [1] (setting [5]) is at most 30 nM; at PI3Kγ [1] (read-out: PI3Kγ Ki value), 13 nM; on PI3Kα it was at most 3000 nM; at PI3Kβ, at most 300 nM; on PI3Kδ, at most 300 nM. Besides, in data set [2], the “hLMS_ox(at 0.5 μM) %” value was determined as 103%. Also, the inhibition at 10 min, 1 µM against hERG channel (IKr) was 1.3%.

For the compound `COc1nc(Cl)cc(N2CCc3nc(NC(=O)Nc4ccccc4C(=O)NC4CCCC4O)sc3C2)n1` (centres unmarked) [Compound I-174], the inhibition at 10 µM at PI3Kγ [3] was at least 95%. The inhibition at 1 µM in the data set with AKT phosphorylation stood at 81%. Besides, the Ki at PI3Kγ [1] (setting [5]) is at most 30 nM; at PI3Kγ [1] (read-out: PI3Kγ Ki value) it was 3.6 nM; at PI3Kα it was over 3000 nM; on PI3Kβ it was at most 3000 nM; at PI3Kδ, at most 3000 nM.

Regarding `CC(C)NC(=O)c1ccccc1NC(=O)Nc1nc2c(s1)CN(c1cc[nH]c(=O)c1)CC2` [Compound I-178], the inhibition at 10 µM on PI3Kγ [3] was at least 95%. Further, in [4], the concentration in solution (solubility at 16 h) was 10 µM (≈ 4.53 µg/mL). Moreover, in [2], the “hLMS_ox(at 0.5 μM) %” value was 97.9%.

`COc1cc(N2CCc3nc(NC(=O)NN4CCC[C@H]4C(=O)NC(C)C)sc3C2)nc(OC)n1` [Compound I-179] came in with a solubility at 16 h in data set [4] of over 50 µM.

On to `C[C@@H](CO)NC(=O)c1ccccc1NC(=O)Nc1nc2c(s1)CN(c1cncc(C#N)c1)CC2` [Compound I-189], for which the inhibition at 10 µM at PI3Kγ [3] stood at 92%. This compound also had a solubility at 16 h in data set [4] of 10.3 µM (≈ 4.92 µg/mL). Also, the MBI result at CYP3A4 was “(−) (When 3 μmol/L or less, the compound is shown as (−))”.

Regarding `COc1cc(-c2ccc3nc(NC(=O)Nc4ccccc4OCCC(C)C)sc3c2)nc(OC)n1` [Compound I-213], the Ki is at most 300 nM on PI3Kγ [1] (setting [5]); 58 nM at PI3Kγ [1] (read-out: PI3Kγ Ki value); over 3000 nM at PI3Kα; over 3000 nM on PI3Kβ; over 3000 nM on PI3Kδ.

Turning to `COc1cncc(-c2ccc3nc(NC(=O)Nc4ccccc4OCCC(C)C)nn3c2)c1` [Compound I-216], the inhibition at 10 µM on PI3Kγ [3] is at least 95%. The inhibitory constant (Ki) is at most 300 nM on PI3Kγ [1] (setting [5]); 230 nM on PI3Kγ [1] (read-out: PI3Kγ Ki value); over 3000 nM at PI3Kα; at most 3000 nM at PI3Kβ; over 3000 nM on PI3Kδ.

Turning to `COc1cncc(-c2ccc3nc(NC(=O)Nc4ccccc4OCCC(C)C)sc3n2)c1` [Compound I-225], on PI3Kγ [3], the inhibition at 10 µM was at least 95%. Moreover, the Ki on PI3Kγ [1] (setting [5]) was at most 30 nM; on PI3Kγ [1] (read-out: PI3Kγ Ki value), 15 nM; on PI3Kα, over 3000 nM; on PI3Kβ, at most 300 nM; on PI3Kδ, over 3000 nM. Also, the MBI result at CYP3A4 is “(−) (When 3 μmol/L or less, the compound is shown as (−))”.

Consider `CC(=O)c1cccc(-c2cc(NC(=O)Nc3ccccc3C(=O)NC(C)C)nn2C)c1` [Compound I-227], for which, at PI3Kγ [3], the inhibition at 10 µM is 87%. Besides, in data set [4], the solubility at 16 h was 36.8 µM (≈ 15.4 µg/mL).

As to `Cc1cc(N2Cc3sc(NC(=O)Nc4ccccc4C(=O)NC(C)C)nc3C(C)C2)nc(Cl)n1` (centres unmarked) [Compound I-229], at PI3Kγ [3], the inhibition at 10 µM is at least 95%. Moreover, the Ki is at most 30 nM on PI3Kγ [1] (setting [5]); 9.4 nM on PI3Kγ [1] (read-out: PI3Kγ Ki value); over 3000 nM at PI3Kα; over 3000 nM on PI3Kβ; over 3000 nM on PI3Kδ.

These data come from patent US20120071475A1, “UREA DERIVATIVES HAVING PI3K-INHIBITING ACTIVITY” (SHIONOGI & CO., LTD., priority 2009, published 2012).
